For assay [1], the system named is Plasmodium falciparum strain 3D7. Nature of the assay: Plasmodium falciparum 3D7 in vitro growth inhibition (SYBRgreen I). Type of assay: cell-based. Particulars: Plasmodium falciparum, 3D7; read-out: pEC50 for Pf 3D7 (converted). The protocol:
Parasite Cultures and Cytotoxicity Assay Methodology for Plasmodium falciparum. […] Growth inhibition of the Plasmodium falciparum cultures was quantified in a 10-point dose response curve with a 1 in 3 dilution series from a top assay concentration of 50 μM. This 384 well plate based fluorescence assay utilises the binding of SYBRgreen I (Thermo Fisher Scientific/Invitrogen cat. no. S7585) to double stranded DNA, which greatly increases the fluorescent signal at 528 nm after excitation at 485 nm. Mefloquine was used as a drug control to monitor the quality of the assay (Z′=0.6 to 0.8, where Z′ is a measure of the discrimination between the positive and negative controls on a screen plate). Dose-response curves were determined from a minimum of 3 independent experiments. Compound bioactivity was expressed as EC50, the effective concentration of compound causing 50% parasite death.

Another assay concerns Hep G2. Nature of the assay: Hep G2 in-vitro cytotoxicity assay. Type of assay: cell-based. As to conditions: Homo sapiens, HepG2, read-out: Hs HEPG2 pEC50 (converted). An excerpt:
In-vitro cytotoxicity studies can be carried out using Hep G2 (Human hepatocyte carcinoma, HPACC cat. no. 85011430) used as indicators for general mammalian cell toxicity. Hep G2 in-vitro cytotoxicity can be assessed using the assay procedure as described in “Use of a human-derived liver cell line for the detection of cytoprotective, antigenotoxic and cogenotoxic agents”, Volker Mersch-Sundermann, Siegfried Knasmüller, Xin-jiang Wu, Firouz Darroudi, Fekadu Kassie. J. Tox 198 (2004) 329-340) the contents of which are incorporated herein by reference.

For another assay, the system named is Cryptosporidium parvum. Description: In vitro Crytosporidium inhibition assay. It counts as cell-based. Particulars: Cryptosporidium parvum; read-out: Cryptosporidium parvum pEC50 (converted). From the text:
Assay Method for Measurement of In Vitro Inhibition of Crytosporidium.
These experiments were run in accordance with the method of Besssoff et. al. Antimicrob. Agents Chemother. 2013, 57:1804-1814. Results from these experiments are provided in the Experimental Results hereinafter.

For assay [2], the target named is T1, Plasmodium falciparum lysyl t-RNA synthetase (Pf-KRS1) (Plasmodium falciparum, UniProt Q8IDJ8).
T1 construct: Pf KRS1-; made in house; host or cells: E. coli BL21 (DE3)
T1 sequence (Q8IDJ8 entry or part of it, looked up, natural form): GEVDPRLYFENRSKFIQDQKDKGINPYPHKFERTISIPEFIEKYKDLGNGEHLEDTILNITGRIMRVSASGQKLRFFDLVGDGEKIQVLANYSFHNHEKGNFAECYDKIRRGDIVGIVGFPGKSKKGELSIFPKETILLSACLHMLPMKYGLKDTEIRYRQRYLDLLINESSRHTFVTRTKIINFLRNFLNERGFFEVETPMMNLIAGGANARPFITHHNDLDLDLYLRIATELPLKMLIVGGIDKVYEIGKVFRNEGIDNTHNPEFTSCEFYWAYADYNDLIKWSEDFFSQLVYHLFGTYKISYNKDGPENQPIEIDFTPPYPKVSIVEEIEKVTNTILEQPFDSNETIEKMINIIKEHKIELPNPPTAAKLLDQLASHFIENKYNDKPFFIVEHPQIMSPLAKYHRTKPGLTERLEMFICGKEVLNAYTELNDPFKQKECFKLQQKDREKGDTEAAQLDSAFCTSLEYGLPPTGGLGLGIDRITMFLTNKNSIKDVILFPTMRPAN
Nature of the assay: Pf-KRS1 inhibition biochemical assay (Kinase-Glo, ATP depletion). Particulars: read-out: Pf-KRS pIC50 (converted). From the text:
Plasmodium falciparum Lysine tRNA Synthetase (KRS1) Biochemical Assay Methodology.
Lysine tRNA Synthetase (KRS1) is an enzyme which catalyses the esterification of L-Lysine to the appropriate transfer ribonucleic acid (tRNA), to form an aminoacyl-tRNA. Once the tRNA is charged, a ribosome transfers the amino acid from the tRNA onto a growing peptide, according to the genetic code.
The substrates of this reaction are L-lysine, and adenosine triphosphate (ATP), the overall reaction is: amino acid+tRNA+ATP→aminoacyl-tRNA+AMP+PPi
In this overall reaction AMP is adenosine monophosphate and PP; is inorganic pyrophosphate. The reaction progression in a biochemical assay can be tracked by the depletion of one of the substrates, in the case of this invention, ATP. This was done using the proprietary assay kit, Kinase Glo® Assay which is a luminescent kinase assay platform suitable for monitoring kinase activities using up to 10 μm ATP which is commercially available from the Promega Corporation of Madison, Wis., USA. The Kinase-Glo® Assay was performed in a single well of a multiwell plate by adding a volume of Kinase-Glo® Reagent equal to the volume of a completed kinase reaction and measuring luminescence. The resulting luminescent signal is correlated with the amount of ATP present and is inversely correlated with the amount of kinase activity. As such by use of this assay methodology a reduction of the luminescent signal is relative to the reduction in ATP as the reaction progresses. A compound which inhibits the action of KRS will show no drop in the luminescent signal from assay controls.
Assays were performed using both Plasmodium falciparum and human KRS to assess any selectivity of various test compounds.
Test compounds were solubilized in DMSO at a top concentration of 10 mM and serially diluted 1 in 3 to achieve a range of final assay concentrations of 50 μM to 2.5 nM in 10 μl reaction volume.
KRS was diluted to a working concentration of 75 nM in assay buffer (25 mM HEPES, 25 mM KOH, 10 mM MgCl2.6H2O, 50 mM KCl), and the following ‘Master Mix’ prepared in assay buffer: 0.1 mg/ml BSA, 250 μM DTT, 200 μM Spermine, 0.05% NP-40, ATP 3 μM for Pf KRS1 (4 μM for Hs KRS1), 0.4 mg/ml tRNA from Yeast, 60 μM L-Lysine, 0.5 U/ml Pyrophosphatase.
Plates were incubated at room temperature for 5 h for Pf KRS (2.5 hrs for HsKRS), then the assay stopped by the addition of 10 μl of The Kinase-Glo® Reagent Assay was performed in a single well of a multiwell plate by adding a volume of Kinase-Glo® Reagent which is commercially available from the Promega Corporation of Madison, Wis., USA. The plates were incubated in the dark for a further 15 mins before being read for luminescence on a BMG PHERAstar® FSX plate reader which is a multi-mode reader for use in high-throughput screening available from BMG Labtech if Cary, N.C., USA. Data were analysed by calculating the percentage inhibition compared to the maximum and minimum assay controls. Concentration effect curves were fitted using nonlinear regression within ActivityBase and IC50 values were determined using standard protocols.
(In general: Kinase-Glo reads ATP consumption through a luciferase reaction.)

Values joined by “and” are separate entries in the source; they are usually repeats but may differ in a detail not shown here. Equal values may be shown once.

As to `O=C(NCC1(O)CCC(F)(F)CC1)c1cc(=O)c2cc(F)cc(O)c2o1` [Example 76A, N-((4,4-difluoro-1-hydroxycyclohexyl)methyl)-6-fluoro-8-hydroxy-4-oxo-4H-chromene-2-carboxamide], the figures for the EC50 (in assay [1]; with Hep G2; in the assay on Cryptosporidium parvum) were 79.4 nM, 50.1 µM and 3160 nM, respectively. The IC50 in assay [2] was 50.1 nM.
In the case of `Nc1cc(F)cc2c(=O)cc(C(=O)NCC3(O)CCC(F)(F)CC3)oc12` [Example 93, 8-amino-N-[(4,4-difluoro-1-hydroxy-cyclohexyl)methyl]-6-fluoro-4-oxo-chromene-2-carboxamide], the values for the EC50 with Hep G2 and in the assay on Cryptosporidium parvum were 12.6 µM and 501 nM, respectively. The IC50 in assay [2] is 50.1 nM and 63.1 nM.
On to `O=C(NCC1(CO)CCCCC1)c1cc(=O)c2cc(F)ccc2o1` [Example 40, 6-fluoro-N-[[1-(hydroxymethyl)cyclohexyl]methyl]-4-oxo-chromene-2-carboxamide], for which the EC50 in assay [1] is 794 nM; in the assay with Hep G2 it was 50.1 µM; in the assay with Cryptosporidium parvum, 1580 nM. The IC50 in assay [2] is 251 nM.
On to `O=C(NCCCC1CCC1)c1cc(=O)c2cc(F)cc(O)c2o1` [Example 76G, N-(3-cyclobutylpropyl)-6-fluoro-8-hydroxy-4-oxo-4H-chromene-2-carboxamide], for which the figures for the EC50 (in assay [1]; in the assay with Hep G2; in the assay on Cryptosporidium parvum) were 1580 nM, 31.6 µM and 1260 nM, respectively. Further, the IC50 in assay [2] is 126 nM.
`O=C(NCC1(O)CCC(F)(F)CC1)c1cc(=O)c2cc(O)ccc2o1` [Example 57, N-[(4,4-difluoro-1-hydroxy-cyclohexyl)methyl]-6-hydroxy-4-oxo-chromene-2-carboxamide]: the EC50 is 158 nM in assay [1] and 5010 nM with Cryptosporidium parvum. Further, the IC50 in assay [2] is 126 nM.
Consider `O=C(NCC1CCC(F)(F)CC1)c1cc(=O)c2ccccc2o1` [Example 21, N-[(4,4-difluorocyclohexyl)methyl]-4-oxo-chromene-2-carboxamide], for which the results for the EC50 in the assay on Hep G2 and in the assay with Cryptosporidium parvum were 50.1 µM and 7940 nM, respectively.
For `O=C(NCC1CCCCC1)c1cc(=O)c2ccc(Cl)cc2o1` [Example 9, 7-chloro-N-(cyclohexylmethyl)-4-oxo-chromene-2-carboxamide], the EC50 in assay [1] was 1580 nM; with Cryptosporidium parvum, 3550 nM. In addition, the IC50 in assay [2] was 200 nM.
For `COc1cc2c(=O)cc(C(=O)NCC3CCCCC3)oc2cc1F` [Example 71, N-(cyclohexylmethyl)-7-fluoro-6-methoxy-4-oxo-4H-chromene-2-carboxamide], the EC50 is 3160 nM in assay [1] and 3980 nM with Cryptosporidium parvum. For the same compound, the IC50 in assay [2] is 398 nM.
On to `O=C(NCC1CCC(F)(F)CC1)c1cc(=O)c2ccc(F)c(O)c2o1` [Example 79, N-((4,4-difluorocyclohexyl)methyl)-7-fluoro-8-hydroxy-4-oxo-4H-chromene-2-carboxamide], for which the values for the EC50 with Hep G2 and in the assay with Cryptosporidium parvum were 50.1 µM and 794 nM, respectively. For the same compound, the IC50 in assay [2] is 200 nM.
Turning to `O=C(NCC1(O)CCCCC1)c1cc(=O)c2cc(F)ccc2o1` [Example 41, 6-fluoro-N-[(1-hydroxycyclohexyl)methyl]-4-oxo-chromene-2-carboxamide], the EC50 in assay [1] is 200 nM; in the assay with Hep G2 it was 25.1 µM; in the assay on Cryptosporidium parvum it was 501 nM. Further, the IC50 in assay [2] was 100 nM.
Consider `O=C(NCC1(O)CCCCC1)c1cc(=O)c2ccccc2o1` [Example 27, N-[(1-hydroxycyclohexyl)methyl]-4-oxo-chromene-2-carboxamide], for which the EC50 in assay [1] is 251 nM; with Hep G2, 50.1 µM; in the assay on Cryptosporidium parvum, 316 nM. The IC50 in assay [2] was 126 nM.
For the compound `O=C(NCC1CCCCC1)c1cc(=O)c2ccc(O)cc2o1` [Example 4, N-(cyclohexylmethyl)-7-hydroxy-4-oxo-chromene-2-carboxamide], the figures for the EC50 (in assay [1]; in the assay with Hep G2; in the assay with Cryptosporidium parvum) were 1260 nM, 50.1 µM and 1580 nM, respectively. In addition, the IC50 in assay [2] is 1000 nM.
Consider `O=C(NCC1CCCC1)c1cc(=O)c2ccccc2o1` [Example 23, N-(cyclopentylmethyl)-4-oxo-chromene-2-carboxamide], for which the values for the EC50 (in assay [1]; with Cryptosporidium parvum) were 1580 nM and 2000 nM, respectively. Further, the IC50 in assay [2] was 398 nM.
With `O=C(NCC1CCCCC1)c1cc(=O)c2ccc(F)cc2o1` [Example 42, N-(cyclohexylmethyl)-7-fluoro-4-oxo-chromene-2-carboxamide], the EC50 in assay [1] is 794 nM; with Cryptosporidium parvum, 1260 nM. For the same compound, the IC50 in assay [2] was 200 nM.
With `O=C(NCC1(O)CCCCC1)c1cc(=O)c2cc(Cl)cc(O)c2o1` [Example 73, 6-Chloro-8-hydroxy-N-((1-hydroxycyclohexyl)methyl)-4-oxo-4H-chromene-2-carboxamide], the EC50 in the assay with Hep G2 is 20 µM; with Cryptosporidium parvum, 39.8 nM. Besides, the IC50 in assay [2] is 50.1 nM.
On to `O=C(O)CC1(CNC(=O)c2cc(=O)c3cc(F)ccc3o2)CCCCC1` [Example 57L, 2-(1-((6-fluoro-4-oxo-4H-chromene-2-carboxamido)methyl)cyclohexyl)acetic acid], for which the EC50 was 794 nM in assay [1], 50.1 µM with Hep G2 and 5010 nM in the assay on Cryptosporidium parvum.
As to `O=C(NCC1CCCCC1)c1cc(=O)c2cccc(O)c2o1` [Example 67, N-(cyclohexylmethyl)-8-hydroxy-4-oxo-4H-chromene-2-carboxamide], the EC50 was 63.1 nM in assay [1] and 316 nM with Cryptosporidium parvum. Also, the IC50 in assay [2] was 63.1 nM.
`O=C(NCC1(O)CC2(CCC2)C1)c1cc(=O)c2cc(F)cc(O)c2o1` [Example 76D, 6-fluoro-8-hydroxy-N-((2-hydroxyspiro[3.3]heptan-2-yl)methyl)-4-oxo-4H-chromene-2-carboxamide]: the results for the EC50 (in assay [1]; in the assay with Hep G2; in the assay on Cryptosporidium parvum) were 398 nM, 50.1 µM and 3980 nM, respectively. The IC50 in assay [2] was 126 nM.
Turning to `O=C(NCC1(O)CCC(F)(F)CC1)c1cc(=O)c2cc(F)cc(F)c2o1` [Example 56, N-((4,4-difluoro-1-hydroxycyclohexyl)methyl)-6,8-difluoro-4-oxo-4H-chromene-2-carboxamide], the figures for the EC50 (in assay [1]; in the assay on Cryptosporidium parvum) were 1580 nM and 7940 nM, respectively. In assay [2], the IC50 is 316 nM.
For the compound `O=C(NCCC1CCCC1)c1cc(=O)c2ccccc2o1` [Example 26, N-(2-cyclopentylethyl)-4-oxo-chromene-2-carboxamide], the EC50 in assay [1] is 6310 nM; in the assay on Cryptosporidium parvum, 10000 nM. The IC50 in assay [2] was 501 nM.
For the compound `C[C@H](NC(=O)c1cc(=O)c2cc(F)ccc2o1)C1CCCCC1` [Example 49A, (S)—N-(1-cyclohexylethyl)-6-fluoro-4-oxo-4H-chromene-2-carboxamide], the EC50 in assay [1] was 398 nM; in the assay with Cryptosporidium parvum, 158 nM. For the same compound, the IC50 in assay [2] is 126 nM.
